The record followed here is paper PMC11355573, “A New Renieramycin T Right-Half Analog as a Small Molecule Degrader of STAT3” (Marine Drugs, 2024).

Structures are written as SMILES.

Assay [1] relates to BEAS-2B cells. Briefly: MTT assay in non-tumorigenic bronchial epithelial cells (selectivity). It counts as cell-based. Particulars: Homo sapiens, 24 h, read-out: BEAS-2B IC50 ± SD. As to the method: NSCLCs H292 and H460 were treated with various concentrations of derivatives of the RT right-half analog for 24 h. […] However, the IC50 values for DH_17, DH_20, DH_23, and DH_26 in H460 cells were greater than 100 μM. TM-(−)-18 was identified as a potent compound in a previous study. The structure of TM-(−)-18 was present in Figure 1A. […] To assess the selectivity of DH_28, DH_30, DH_31, and TM-(−)-18 in lung cancer cells, non-tumorigenic epithelial cell lines derived from human bronchial epithelial cells (BEAS-2B) were treated with DH_28, DH_30, DH_31, and TM-(−)-18 at various concentrations for 24 h.
Figure 2 The effect of RT right-half analogs on cytotoxicity in NSCLC and human normal lung epithelial (BEAS-2B) cell lines and apoptotic cell death in NSCLC cells. (A) NSCLC H292 and H460 cells were treated with derivatives of RT right-half analogs for 24 h and analyzed using MTT assay to assess cytotoxicity. (B) IC50 values for H292 and H460 cell lines were calculated. (C) BEAS-2B cells were treated with DH_28, DH_30, DH_31, and TM-(−)-18 for 24 h. The cytotoxic effects were evaluated using an MTT assay, and the IC50 values for BEAS-2B cells were determined. (D) H292 and H460 cells were seeded and treated with 0–10 μM of DH_28, DH_30, and DH_31 for 24 h. Hoechst 33342 and PI were used to stain the cell nuclei. Images were obtained under a fluorescence microscope. (E) The percentages of cell death were calculated based on the stained images in H292 and H460 cells. […] TEXT PRINTED IN THE PICTURE: (B) DH_17: IC50 ± SD (μM) H292: 20.50 ± 3.69; IC50 ± SD (μM) H460: > 100 | (B) DH_20: IC50 ± SD (μM) H292: 21.46 ± 3.77; IC50 ± SD (μM) H460: > 100 | (B) DH_23: IC50 ± SD (μM) H292: 17.50 ± 3.08; IC50 ± SD (μM) H460: > 100 | (B) DH_26: IC50 ± SD (μM) H292: 7.18 ± 2.39; IC50 ± SD (μM) H460: > 100 | (B) DH_28: IC50 ± SD (μM) H292: 9.56 ± 1.87; IC50 ± SD (μM) H460: 11.48 ± 1.87 | (B) DH_30: IC50 ± SD (μM) H292: 7.80 ± 2.30; IC50 ± SD (μM) H460: 4.51 ± 0.78 | (B) DH_31: IC50 ± SD (μM) H292: 5.54 ± 1.04; IC50 ± SD (μM) H460: 2.90 ± 0.58 | (B) TM-(–)-18: IC50 ± SD (μM) H292: > 100; IC50 ± SD (μM) H460: 7.89 ± 1.27 | (C) DH_28: BEAS-2B IC50 ± SD (μM): 16.46 ± 2.11 | (C) DH_30: BEAS-2B IC50 ± SD (μM): 5.50 ± 1.70 | (C) DH_31: BEAS-2B IC50 ± SD (μM): 6.51 ± 1.40 | (C) TM-(–)-18: BEAS-2B IC50 ± SD (μM): 7.25 ± 1.25 DOUBTS OF THE COPYIST ABOUT THIS PICTURE: Panel C, DH_28, IC50: small print, 16.46 ± 2.11 is the best reading; 6 could be 8 / Panel C, DH_30, IC50: small print, 5.50 ± 1.70 is the best reading; 5 could be 6 / Panel C, DH_31, IC50: small print, 6.51 ± 1.40 is the best reading; 6 could be 8 or 5 / Panel C, TM-(–)-18, IC50: small print, 7.25 ± 1.25 is the best reading
Background: Tetrazolium assays rely on reduction of a dye to a coloured formazan, in cell work by metabolically active cells.

In assay [2] the test system is NSCLC cells (H292 and H460). Briefly: Hoechst 33342/PI staining, percentage of dead cells in NSCLC. The assay is classed as cell-based, human. Conditions: 10 μM, 24 h. As to the method: Apoptosis is a crucial mechanism of cell death induced by anticancer drugs. We further analyzed the apoptosis induction effect of the potent small molecules, namely DH_28, DH_30, and DH_31. Nuclear morphology detected by the staining with nucleus-specific fluorescence dye Hoechst 33342 and cell-impermeable PI for necrotic detection was performed. Morphologic changes by means of condensed and/or fragmented nuclei were observed after 24 h of treatment (Figure 2D). […] Therefore, DH_31 was selected for further experiments.
Figure 2 The effect of RT right-half analogs on cytotoxicity in NSCLC and human normal lung epithelial (BEAS-2B) cell lines and apoptotic cell death in NSCLC cells. (A) NSCLC H292 and H460 cells were treated with derivatives of RT right-half analogs for 24 h and analyzed using MTT assay to assess cytotoxicity. (B) IC50 values for H292 and H460 cell lines were calculated. (C) BEAS-2B cells were treated with DH_28, DH_30, DH_31, and TM-(−)-18 for 24 h. The cytotoxic effects were evaluated using an MTT assay, and the IC50 values for BEAS-2B cells were determined. (D) H292 and H460 cells were seeded and treated with 0–10 μM of DH_28, DH_30, and DH_31 for 24 h. Hoechst 33342 and PI were used to stain the cell nuclei. Images were obtained under a fluorescence microscope. (E) The percentages of cell death were calculated based on the stained images in H292 and H460 cells. […]

Assay [3] relates to STAT3 mRNA. Kind of assay: STAT3 mRNA by Real-time qPCR. The assay is classed as cell-based, human. Particulars: H460, 0–2.5 μM, 8 h. As to the method:
To explore whether the reduction in total STAT3 protein after DH_31 treatments (as shown in Figure 5B–E) occurs at the mRNA or protein levels, we first investigated mRNA levels using Real-time qPCR. […] To evaluate whether DH_31 affects STAT3 stability, pretreatment with MG132, a potent selective proteasome inhibitor, was performed. H460 cells were pretreated with or without MG132 (10 μM) for 1 h and then cells were either treated with DH_31 for 6 h or left untreated. […] The proteasome can recognize and degrade protein targets that are conjugated by single or poly-ubiquitin molecules. To investigate the ubiquitination level of STAT3 with DH_31 treatments, the ubiquitination level was evaluated using immunoprecipitation and Western blot analysis of the STAT3–ubiquitin complex in the lung cancer cells treated with DH_31 and in untreated cells.
Quantitative Real-time PCR was performed to determine the effect of DH_31 on mRNA levels of STAT3 and EMT-related genes. H460 cells (4.0 × 10^5 cells per well) were seeded in 6-well plates. Following overnight incubation, the cells were treated with different concentrations of DH_31 (0–2.5 μM)) for 8 h at 37 °C. After treatment, total RNA was isolated using the RNeasy kit (Qiagen, Germany) and subsequently subjected to cDNA synthesis using qScript cDNA Supermix (Quanta bio, Beverly, MA, USA), following the manufacturers’ protocols. […]
In general terms: Real-time PCR tracks product formation cycle by cycle.

By IC50 is commonly meant the concentration that gives 50% inhibition. Consider `COc1c(C)cc2c(c1O)[C@@H]1CN(Cc3ccc4ccccc4c3)[C@@H](C#N)[C@H](C2)N1C` [DH_31, (1R,4R,5S)-10-hydroxy-9-methoxy-8,11-dimethyl-3-(naphthalen-2-ylmethyl)-1,2,3,4,5,6-hexahydro-1,5-epiminobenzo[d]azocine-4-carbonitrile], for which the IC50 in assay [1] stood at 6.51 ± 1.4 µM. For the same molecule, the “dead cells in NSCLC” value in assay [2] is recorded as 34–66%. Besides, the “mRNA expression of STAT3” value in assay [3] was “did not change significantly”.
